How the values were obtained:
[1] = system: OVCAR3 human ovarian carcinoma xenograft; experiment: OVCAR3 xenograft efficacy; format: in vivo; conditions: CB.17 SCID mice, 4 mg/kg weekly, four doses
Method: In this three-arm study, a vehicle control was included, which consisted of the nanoparticle emulsion with no cisplatin. A positive control arm included a conventional formulation of free cisplatin dosed at 4 mg/kg. The test arm included the nanoparticle emulsion at a dose of 4 mg/kg.
60 female CB.17 SCID mice, aged 8 to 12 weeks, were implanted with 1 mm^3 OVCAR3 tumor fragments in the flank. When the tumors had grown to approximately 100-150 mm^3, pairs were matched by tumor size and treatment began. Dosing was carried out weekly on all three arms, for a total of four doses. Body weight and tumor size for each of the mice was taken every other day. No excess toxicity was noted, as evidenced by body weight and observed behavior of the mice. […] The negative control (labeled ‘vehicle’ in FIG. 6) served as a reference for tumor growth in the absence of cisplatin.

[2] = From the text: In a fifth alternative example, formulation of a nanoparticle emulsion was attempted as described in example 1, except that no triacetin was used, just safflower oil as the lipid component. […] The maximum solubility was approximately 1000× less than in triacetin.

Row | maximum solubility in safflower oil, fold less than in triacetin [2] | SMILES | effect on tumor growth [1]
1 | – | N.N.[Cl][Pt][Cl] [free cisplatin, cisplatin] | significant reduction in tumor growth
2 | approximately 1000 × | CC(=O)O[C@H]1C(=O)[C@@]2(C)[C@H]([C@H](OC(=O)c3ccccc3)[C@]3(O)C[C@H](OC(=O)[C@H](O)[C@@H](NC(=O)c4ccccc4)c4ccccc4)C(C)=C1C3(C)C)[C@]1(OC(C)=O)CO[C@@H]1C[C@@H]2O [paclitaxel] | –
